≈ marks a conversion by molar mass, not a printed value. Like-named read-outs stand apart in the source and are kept apart here. Values belong to the molecule of their own block, whether it stands above or below them.
Assays:
[1] = system: Staphylococcus aureus (ATCC25923); assay: MIC, broth microdilution (CLSI), Staphylococcus aureus ATCC25923
[2] = system: Staphylococcus aureus subsp. aureus (ATCC29213); assay: MIC, broth microdilution (CLSI), Staphylococcus aureus subsp. aureus ATCC29213; assay type: cell-based
[3] = system: E. coli RNase P RNA, M1 RNA; assay: Inhibition of bacterial RNase P activity, IC50 determination (cleavage of pATSerUG by M1 RNA); assay type: biochemical; settings: NI = No inhibition
[4] = system: Escherichia coli (ATCC25922); assay: MIC, broth microdilution (CLSI), Escherichia coli ATCC25922
N. gonorrhoeae 612501 = assay: MIC, N. gonorrhoeae 612501; assay type: cell-based; settings: Neisseria gonorrhoeae
S. aureus ATCC 29213 = assay: MIC, S. aureus ATCC 29213 + 50% HS; assay type: cell-based; settings: Staphylococcus aureus, ATCC29213
[5] = system: S. aureus MRSA ATCC 33591; assay: MIC, S. aureus MRSA ATCC 33591; assay type: cell-based
[6] = system: Pseudomonas aeruginosa (ATCC27853); assay: microbe, parasite or virus in culture; assay type: cell-based; settings: read-out: MIC P. aeruginosa ATCC 27853
S. pneumoniae ATCC 49619 = assay: MIC, S. pneumoniae ATCC 49619; assay type: cell-based; settings: Streptococcus pneumoniae, ATCC49619
H. influenzae ATCC 49247 = assay: MIC, H. influenzae ATCC 49247; assay type: cell-based; settings: Haemophilus influenzae, ATCC49247
[7] = system: P. aeruginosa NTUH-974 (MDR); assay: MIC, P. aeruginosa NTUH-974 (MDR); assay type: cell-based
A. baumannii ATCC 17978 = assay: MIC, A. baumannii ATCC 17978; assay type: cell-based; settings: Acinetobacter baumannii, ATCC17978
K. pneumoniae ATCC 43816 = assay: MIC, K. pneumoniae ATCC 43816; assay type: cell-based; settings: Klebsiella pneumoniae, ATCC43816
E. coli JW5503 = assay: MIC, E. coli JW5503; assay type: cell-based; settings: Escherichia coli, JW5503, read-out: MIC E. coli JW5503
[8] = system: Enterococcus faecalis (ATCC29212); assay: MIC, broth microdilution (CLSI), Enterococcus faecalis ATCC29212; assay type: cell-based; settings: read-out: MIC E. faecalis ATCC 29212
E. faecium ATCC 700221 = assay: MIC, E. faecium ATCC 700221; assay type: cell-based; settings: Enterococcus faecium, ATCC700221, read-out: MIC E. faecium ATCC 700221
[9] = ATCC25923, read-out: S. aureus ("Clinical") MIC
[10] = ATCC29213, Table 15, read-out: S. aureus ("wound") (MIC)
[11] = ATCC25922, read-out: E. coli MIC, Table 15, NI = No inhibition
[12] = ATCC29213, Table 16, read-out: MIC S. aureus ATCC 29213

Structure (SMILES): NC1CCCC(C(=O)Nc2cc(C(F)(F)F)cc3nc4ccccc4nc23)C1 (centres unmarked) [compound 211, 3-amino-N-(3-(trifluoromethyl)phenazin-1-yl) cyclohexane-carboxamide]
- MIC [1, 9]: 25 µg/mL (≈ 64.4 µM)
- MIC [2, 10]: 211 µg/mL (≈ 543 µM)
- IC50 [3]: 258 µM

Structure (SMILES): N#Cc1ccc2c(c1)Sc1cc(C(F)(F)F)cc(NC3CCN(CCN)CC3)c1N2 [compound 217, 9-((1-(2-Aminoethyl)piperidin-4-yl)amino)-7-(trifluoromethyl)-10H-phenothiazine-3-carbonitrile]
- MIC [1, 9]: 2 µg/mL (≈ 4.61 µM)
- MIC [2, 10]: 4 µg/mL (≈ 9.23 µM)
- MIC [4, 11]: 3 µg/mL (≈ 6.92 µM)
- IC50 [3]: 10 µM

Structure (SMILES): NCCN(CCN)CCN1CCC(Nc2cc(C(F)(F)F)cc3c2Nc2ccccc2S3)CC1 [compound 234, N1-(2-aminoethyl)-N1-(2-(4-((3-(trifluoromethyl)-10H-phenothiazin-1-yl)amino)piperidin-1-yl)ethyl)ethane-1,2-diamine]
- MIC [1, 9]: 4 µg/mL (≈ 8.09 µM)
- MIC [2, 10]: 8 µg/mL (≈ 16.2 µM)
- MIC [4, 11]: 8 µg/mL (≈ 16.2 µM)

- MIC [1, 9]: 23 µg/mL (≈ 62.9 µM)
- MIC [4, 11]: > 100 µg/mL
- IC50 [3]: 62 µM
Structure (SMILES): FC(F)(F)c1cc(NC2CCNCC2)cc2c1Nc1ccccc1S2 [compound 240, N-(piperidin-4-yl)-1-(trifluoromethyl)-10H-phenothiazin-3-amine]

Structure (SMILES): NC1CCCC(C(=O)Nc2cc(C(F)(F)F)cc3c2Nc2ccc(-c4cc5ccccc5[nH]4)cc2S3)C1 (centres unmarked) [compound 242, N-(7-(1H-Indol-2-yl)-3-(trifluoromethyl)-10H-phenothiazin-1-yl)-3-aminocyclohexanecarboxamide]
- MIC [1, 9]: 4 µg/mL (≈ 7.65 µM)
- MIC (N. gonorrhoeae 612501): 2 µg/mL (≈ 3.83 µM)
- MIC [2, 10]: 8 µg/mL (≈ 15.3 µM)
- MIC [2, 12]: 2 µg/mL (≈ 3.83 µM)
- MIC (S. aureus ATCC 29213): 128 µg/mL
- MIC ([5]; Staphylococcus aureus; read-out: MIC S. aureus MRSA ATCC 33591): 2 µg/mL (≈ 3.83 µM)
- MIC [6]: > 128 µg/mL
- MIC (S. pneumoniae ATCC 49619): 16 µg/mL (≈ 30.6 µM)
- IC50 [3]: 3 µM
- MIC (H. influenzae ATCC 49247): 16 µg/mL (≈ 30.6 µM)
- MIC ([7]; Pseudomonas aeruginosa; read-out: MIC P. aeruginosa NTUH-974 (MDR)): 64 µg/mL (≈ 122 µM)
- MIC (A. baumannii ATCC 17978): 16 µg/mL (≈ 30.6 µM)

Structure (SMILES): NCCCN1c2ccc(-c3cc4ccccc4[nH]3)cc2Sc2cc(N3CCNCC3)ccc21.O=C(O)C(F)(F)F [compound 244, 3-(3-(1H-indol-2-yl)-7-(piperazin-1-yl)-10H-phenothiazin-10-yl)propan-1-amine]
- MIC [1, 9]: 9 µg/mL
- MIC [2, 10]: 4 µg/mL
- MIC [4, 11]: 36 µg/mL
- IC50 [3]: 4 µM

Structure (SMILES): COC(=O)c1ccc2c(c1)Sc1cc(C(F)(F)F)cc(NC3CCN(CCN)CC3)c1N2 [compound 247, Methyl 9-((1-(2-aminoethyl)piperidin-4-yl)amino)-7-(trifluoromethyl)-10H-phenothiazine-3-carboxylate]
- MIC [1, 9]: 4 µg/mL (≈ 8.57 µM)
- MIC [2, 10]: 8 µg/mL (≈ 17.1 µM)
- MIC [4, 11]: 4 µg/mL (≈ 8.57 µM)
- IC50 [3]: 16 µM

- MIC [1, 9]: 7 µg/mL (≈ 17.1 µM)
- MIC [4, 11]: 26 µg/mL (≈ 63.6 µM)
- IC50 [3]: 9 µM
Structure (SMILES): NCCN1CCC(Nc2cc3c(c(C(F)(F)F)c2)Nc2ccccc2S3)CC1 [compound 252, N-(1-(2-aminoethyl)piperidin-4-yl)-1-(trifluoromethyl)-10H-phenothiazin-3-amine]

Structure (SMILES): NCCNC(=O)c1ccc2c(c1)Sc1cc(C(F)(F)F)cc(NC3CCN(CCN)CC3)c1N2 [compound 255, N-(2-aminoethyl)-9-((1-(2-aminoethyl)piperidin-4-yl)amino)-7-(trifluoromethyl)-10H-phenothiazine-3-carboxamide trifluroroacetic acid]
- MIC ([1]; ATCC25923, read-out: S. aureus ("Clinical") MIC, Table 15): 2 µg/mL (≈ 4.04 µM)
- MIC (K. pneumoniae ATCC 43816): 128 µg/mL (≈ 259 µM)
- MIC (N. gonorrhoeae 612501): 16 µg/mL (≈ 32.4 µM)
- MIC (E. coli JW5503): 16 µg/mL (≈ 32.4 µM)
- MIC [2, 10]: 8 µg/mL (≈ 16.2 µM)
- MIC [2, 12]: 8 µg/mL (≈ 16.2 µM)
- MIC [8]: 16 µg/mL (≈ 32.4 µM)
- MIC (S. aureus ATCC 29213): 64 µg/mL
- MIC ([5]; Staphylococcus aureus, read-out: MIC S. aureus MRSA ATCC 33591): 16 µg/mL (≈ 32.4 µM)
- MIC ([4]; ATCC25922, read-out: E. coli MIC): 39 µg/mL (≈ 78.9 µM)
- MIC ([4]; ATCC25922, read-out: MIC E. coli ATCC 25922): 64 µg/mL (≈ 129 µM)
- MIC [6]: 128 µg/mL (≈ 259 µM)
- MIC (S. pneumoniae ATCC 49619): 64 µg/mL (≈ 129 µM)
- MIC (H. influenzae ATCC 49247): 64 µg/mL (≈ 129 µM)
- MIC (E. faecium ATCC 700221): 32 µg/mL (≈ 64.7 µM)
- MIC ([7]; Pseudomonas aeruginosa, read-out: MIC P. aeruginosa NTUH-974 (MDR)): 64 µg/mL (≈ 129 µM)
- MIC (A. baumannii ATCC 17978): 128 µg/mL (≈ 259 µM)
